Reference: ChEMBL document CHEMBL1201862, “PubChem BioAssay data set” (2004)
Activity calls are given as the source filed them.

Legend:
NS3 = NS3 (Hepatitis C virus, UniProt A3EZJ3); assay: NS3h DNA-binding inhibition IC50 – biochemical, fluorescence polarization, ChemBridge library, dose response (AID 743264)
[1] = inhibitors of non-replicating M. tuberculosis, dose response, luciferase, dry powder (AID 651619); type: functional; conditions: Mycobacterium tuberculosis
[2] = inhibitors of non-replicating M. tuberculosis, dose response, luciferase, dry powder (AID 651620); type: functional; conditions: Mycobacterium tuberculosis
[3] = target: T1, NAD-dependent protein deacylase sirtuin-5, mitochondrial (Homo sapiens, UniProt Q9NXA8); assay: blockers of sirtuin-5 peptide desuccinylation – biochemical, fluorescence imaging, cherry-pick, set 6, dose response (AID 720597)
[4] = cytotoxicity in MITF-independent A375 cells – cell-based, CellTiter-Glo luminescence, dry powder, set 4, counter-screen for MITF inhibitor project, dose response (AID 624364); type: functional; conditions: A-375;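 further: A375 melanoma cells are MITF independent so this is a counter screen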
[5] = viability loss in MITF-independent A375 cells – cell-based, CellTiter-Glo luminescence, dry powder, set 2, counter-screen for MITF inhibitor project, dose response (AID 624489); type: functional; conditions: A-375;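 further: actives are compounds lowering A375 viability meaning general cytotoxicity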
[6] = Luminescence Cell-Based Dose Confirmation HTS to Identify Activators of 5'UTR Stem-Loop Driven Alpha-Synuclein mRNA Translation in H4 Neuroglioblastoma Cells. [Related pubchem assays: 1829 (Project Summary), 1814 (Primary HTS)]; type: functional
[7] = Luminescence Cell-Based Dose Response HTS to Identify Activators of Luciferase Translation or Activity in H4 […] Cells. [Related pubchem assays: 1829 (Project Summary), 1814 (Primary HTS)]; type: functional
cells [8] = type: functional, cell-based
H4 = assay: Luminescence Cell-Based Dose Response HTS to Identify Activators of 5'UTR Stem-Loop Driven Prion Protein mRNA Translation in H4 Neuroglioblastoma Cells. [Related pubchem assays: 1829 (Project Summary), 1814 (Primary HTS)]; type: functional; conditions: Homo sapiens
cells [9] = type: functional, cell-based; remark: listed apart in the source
[10] = viability loss in HepG2 hepatoma cells – cell-based, ATP luminescence, cherry-pick, activator set 2, cytotoxicity control, dose response (AID 1053143); type: functional
[11] = target: Oxysterols receptor LXR-beta (Homo sapiens, UniProt P55055); type: functional, cell-based;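 further: agonist activity at LXR measured by a cell-based luminescence readout across a dose range, run as a counterscreen for daf-12 agonists; HEK293 cells with Gal4-LXR fusion and GAL4-driven luciferase reporter; potency for activation of Gal4-LXR reporter so compounds are agonists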
Major prion protein = Major prion protein (Homo sapiens, UniProt P04156); type: functional, cell-based
cells [12] = assay: cells
[13] = potency of ADAM10 substrate cleavage blockers – biochemical, QFRET, dose response (AID 743254);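 further: ADAM10 enzyme with the DM2 quenched FRET peptide as substrate; EDANS fluorescence gain as the protease cuts the substrate; inhibitor potency against ADAM10 proteolytic activity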
[14] = target: Disintegrin and metalloproteinase domain-containing protein 17 (Homo sapiens, UniProt P78536); assay: inhibition of ADAM17 substrate cleavage – biochemical, quenched FRET substrate, counter-screen for ADAM10 exosite inhibitor project, dose response (AID 743253)
[15] = target: T1, NAD-dependent protein deacylase sirtuin-5, mitochondrial; assay: sirtuin-5 deacylation blockers, concentration series – biochemical, fluorescence imaging, cherry-pick, set 5, dose response (AID 720591);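 further: desuccinylation of succinyl peptide AMC substrate read as fluorescence after trypsin release; potency of inhibitors that lower fluorescence and may act on trypsin instead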
[16] = MITF Orthogonal Assay: SK-MEL-5 CTG Assay Measured in Cell-Based System Using Plate Reader - 2084-02_Inhibitor_Dose_DryPowder_Activity_Set7.; type: functional
[17] = MITF: Counter assay: A375 proliferation Measured in Cell-Based System Using Plate Reader - 2084-03_Inhibitor_Dose_DryPowder_Activity_Set8.; type: functional; conditions: A-375
[18] = inhibitors of TRPM1-promoter reporter in SK-MEL-5 – cell-based, luciferase, dry powder, set 8, MITF inhibitor project, dose response (AID 624430); type: functional
[19] = target: Protein disulfide-isomerase (Homo sapiens, UniProt P07237); assay: inhibition of PDI-mediated insulin reduction – biochemical, turbidity, dry powder samples, set 2, confirmation (AID 652146)
[20] = target: Potassium channel subfamily K member 9 (Homo sapiens, UniProt Q9NPC2); assay: KCNK9 flux blockade, concentration-response – cell-based, FluxOR thallium flux, selectivity assay for TASK1 inhibitor project, SAR follow-up (AID 652211); type: functional;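 further: potency is for inhibitors of the channel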
[21] = target: Potassium channel subfamily K member 3 (Homo sapiens, UniProt O14649); assay: inhibition of human KCNK3 channel flux – CHO cells, FluxOR thallium flux, SAR follow-up (AID 652212); type: functional
[22] = target: T2, Ubiquitin-conjugating enzyme E2 N (Homo sapiens, UniProt P61088); type: functional;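 further: Dose-response confirmation in a TR-FRET assay detecting UBC13-driven polyubiquitin chain formation, inhibition measured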
T2 sequence (P61088 whole entry): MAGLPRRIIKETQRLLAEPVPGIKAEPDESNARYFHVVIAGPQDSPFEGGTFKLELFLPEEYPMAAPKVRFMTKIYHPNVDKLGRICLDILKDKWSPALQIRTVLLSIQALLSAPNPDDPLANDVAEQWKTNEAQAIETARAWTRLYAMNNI

[23] = target: FAD-linked sulfhydryl oxidase ALR (Homo sapiens, UniProt P55789); assay: ALR-catalysed DTT oxidation blockers – biochemical, H2O2 detection, luminescence, cherry-pick, dose response (AID 493248)
[24] = cytotoxicity toward MDA-MB-231 breast cancer cells – cell-based, CellTiter-Glo luminescence, cherry-pick, cytotoxicity control for RAD54 inhibitor project, dose response (AID 651692); type: functional
[25] = target: T3, DNA repair and recombination protein RAD54-like (Homo sapiens, UniProt Q92698); assay: RAD54 Holliday junction migration blockers – biochemical, fluorescence, cherry-picked samples, dose series, confirmation (AID 651657); type: functional
T3 sequence (Q92698 whole entry): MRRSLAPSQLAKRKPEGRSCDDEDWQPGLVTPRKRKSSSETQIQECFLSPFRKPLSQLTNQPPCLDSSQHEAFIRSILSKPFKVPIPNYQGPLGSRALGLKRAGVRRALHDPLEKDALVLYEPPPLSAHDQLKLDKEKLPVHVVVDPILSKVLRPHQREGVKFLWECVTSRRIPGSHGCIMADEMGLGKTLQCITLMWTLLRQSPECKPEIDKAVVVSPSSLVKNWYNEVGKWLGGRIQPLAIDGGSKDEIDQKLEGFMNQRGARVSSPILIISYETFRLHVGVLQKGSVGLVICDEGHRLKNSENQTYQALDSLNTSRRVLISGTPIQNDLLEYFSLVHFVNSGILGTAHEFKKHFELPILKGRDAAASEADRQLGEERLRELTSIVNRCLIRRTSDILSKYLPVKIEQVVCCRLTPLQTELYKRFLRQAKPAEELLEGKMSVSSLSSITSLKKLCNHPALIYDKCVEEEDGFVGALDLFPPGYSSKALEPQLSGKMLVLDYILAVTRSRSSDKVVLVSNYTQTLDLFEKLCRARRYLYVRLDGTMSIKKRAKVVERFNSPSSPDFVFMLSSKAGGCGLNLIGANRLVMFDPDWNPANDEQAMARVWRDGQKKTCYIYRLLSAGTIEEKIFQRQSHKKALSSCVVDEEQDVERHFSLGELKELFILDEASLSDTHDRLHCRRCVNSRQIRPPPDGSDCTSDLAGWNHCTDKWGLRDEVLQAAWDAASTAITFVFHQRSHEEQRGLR

[26] = viability loss in HepG2 liver cells – cell-based, ATP luminescence, cherry-pick, set 6, cytotoxicity control, dose response (AID 1053125); type: functional
cells [27] = conditions: A549
cells [28] = assay: cells; remark: listed apart in the source
cells [29] = conditions: HEK293
[30] = luciferase reporter signal suppression in cells – H4 neuroglioma cells, luminescence, dose response (AID 1990); type: functional, cell-based
BJ [31] = assay: BJ-TERT fibroblast viability loss – cell-based, RAS-independent, luminescence, dose response (AID 1933); type: functional; conditions: Homo sapiens
[32] = Luminescence Cell-Based Dose Response HTS to Identify Inhibitors of 5'UTR Stem-Loop Driven Prion Protein mRNA Translation in H4 Neuroglioblastoma Cells. [Related pubchem assays: 1827 (Project Summary), 1813 (Primary HTS)]; type: functional
[33] = alpha-synuclein stem-loop luciferase translation blockers – H4 neuroglioma cells, luminescence, confirmation (AID 1988); type: functional, cell-based
BJ [34] = assay: cells; type: functional, cell-based; conditions: Homo sapiens
Large T antigen = Large T antigen (Simian virus 40, UniProt P03070); type: functional, Betapolyomavirus macacae;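 further: Confirmatory-stage PubChem screen for compounds that inhibit SV40 T antigen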
[35] = target: Luciferin 4-monooxygenase (Photinus pyralis, UniProt P08659); assay: inhibition of purified Photinus pyralis luciferase – biochemical, luminescence, dose response (AID 1891)
[36] = Luminescence Cell-Based Dose Confirmation HTS to Identify Inhibitors of Platelet Dense Granule Release. [Related pubchem assays: 1663 (Primary HTS), 1678 (Summary of Project)]; type: functional
BJ [37] = assay: BJ-TERT-LT-ST fibroblast viability loss – cell-based, RAS-independent, luminescence, dose response (AID 1935); type: functional; conditions: Homo sapiens;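 further: BJ fibroblasts immortalized with TERT plus LT and ST oncogenes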
[38] = DRD fibroblast viability loss – cell-based, non-viral oncogenic, luminescence, dose response (AID 1934); type: functional; conditions: Homo sapiens
Nonstructural protein 1 = Nonstructural protein 1 (Influenza A virus, UniProt Q194T2); type: functional, Influenza A virus (A/California/07/2009(H1N1))
BJ [39] = assay: growth inhibition of engineered Ras-driven BJ cells – cell-based, alamar blue fluorescence, cherrypicked samples, dose response (AID 2631); type: functional; conditions: Homo sapiens;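 further: confirmatory dose-response assay in RAS-dependent BJ fibroblasts engineered with TERT, LT and ST, with cytotoxicity read by fluorescence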
[40] = target: T4, Rac GTPase-activating protein 1 (Homo sapiens, UniProt Q9H0H5); assay: blockers of MgcRacGAP-driven Rac1 GTP hydrolysis – biochemical, ADP Hunter fluorescence, primary and confirmatory, confirmation (AID 624330); type: functional
T4 sequence (Q9H0H5 whole entry): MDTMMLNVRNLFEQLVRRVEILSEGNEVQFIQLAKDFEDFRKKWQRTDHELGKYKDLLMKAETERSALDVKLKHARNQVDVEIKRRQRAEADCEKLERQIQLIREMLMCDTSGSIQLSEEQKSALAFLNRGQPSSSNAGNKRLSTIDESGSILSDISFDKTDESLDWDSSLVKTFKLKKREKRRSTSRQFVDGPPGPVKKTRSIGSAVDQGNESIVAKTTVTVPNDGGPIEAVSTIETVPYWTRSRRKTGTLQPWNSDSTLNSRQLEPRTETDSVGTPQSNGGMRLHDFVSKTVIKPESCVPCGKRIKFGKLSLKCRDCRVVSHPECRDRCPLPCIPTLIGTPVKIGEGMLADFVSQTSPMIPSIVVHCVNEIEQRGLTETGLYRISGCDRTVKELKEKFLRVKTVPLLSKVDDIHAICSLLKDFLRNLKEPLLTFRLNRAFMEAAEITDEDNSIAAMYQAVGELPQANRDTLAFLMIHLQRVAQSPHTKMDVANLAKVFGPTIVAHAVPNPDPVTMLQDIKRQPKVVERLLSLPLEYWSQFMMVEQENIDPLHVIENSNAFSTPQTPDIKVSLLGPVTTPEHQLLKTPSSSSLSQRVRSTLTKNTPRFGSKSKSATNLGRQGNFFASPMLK

[41] = general mammalian cell viability loss – inhibitor set, cherry-pick, set 2, cytotoxicity control for miR-122 modulator project, dose response (AID 720697); type: functional, cell-based
[42] = general mammalian cell viability loss – activator set, cherry-pick, cytotoxicity control for miR-122 modulator project, dose response (AID 720690); type: functional, cell-based;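 further: HEK293T human cells scored for general mammalian cytotoxicity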

O=C1C=CC(=O)N1c1ccc(Br)cc1[N+](=O)[O-]
IC50 (NS3): 22.4 µM (inactive)

[N-]=[N+]=NCCOCCNC(=O)CCCOc1ccc(-c2nnc(SCc3ccccn3)o2)cc1
IC90 [1]: 31 µM (active) | IC90 [2]: 31 µM (active)

COCC(=O)NC[C@@H]1N[C@@H](CO)[C@H]1c1ccc(C2=CCCCC2)cc1
AC50 [3]: > 30 µM (inactive)

CC(=O)N(C)C1=C(N2CCN(C)CC2)C(=O)c2ccccc2C1=O
AC50 [4]: 12.1 µM (active) | AC50 [5]: 5.65 µM (active)

O=C(NCCc1ccccc1)c1cc(-c2ccco2)on1
EC50 [6]: 3.89 µM (active) | EC50 [7]: 0.116 µM (active) | EC50 (cells [8]): 11.8 µM (active) | EC50 (H4): > 120 µM (not active) | EC50 (cells [9]): 339 µM (active) | AC50 [10]: 26 µM (active) | EC50 [11]: > 67.5 µM (inactive)

Cc1nc(SCC(=O)Nc2cc(C(N)=O)cc(C(N)=O)c2)c2c(C)c(C)sc2n1
IC50 (Major prion protein): 11.6 µM (inactive) | IC50 (cells [12]): > 138 µM (inactive)

COc1cc(OC)c(N(C)S(=O)(=O)c2cccc(C(=O)OCC(=O)c3c[nH]c4ccccc34)c2)cc1Cl
IC50 [13]: > 69.5 µM (inactive) | IC50 [14]: > 69.5 µM (inactive)

COc1ccc(C(C(=O)NC(C)(C)C)N(Cc2ccco2)C(=O)CCC(=O)Nc2cc(C)on2)cc1 (centres undefined)
AC50 [15]: 23.5 µM (active)

CCN1CCN(C2=C(Nc3ccc(I)cc3)C(=O)c3ccccc3C2=O)CC1
AC50 [16]: 7.26 µM (active) | AC50 [17]: 16.8 µM (active) | AC50 [18]: 1.48 µM (active)

O=C(Nc1ccccc1)C1(CCOc2ccccc2)CCN(Cc2ccc(O)c(Cl)c2)CC1
AC50 [19]: 15 µM (active)

CCOc1ccccc1NC(=O)c1cccc(NC(=O)CC2CCCCC2)c1
IC50 [20]: 1.92 µM (active) | IC50 [21]: 0.217 µM (active)

Cc1cc2oc3cc(NCCC4CCCN4C)ccc3c(=O)c2cc1C (centres undefined)
EC50 [7]: 0.113 µM (active) | EC50 (H4): 45.4 µM (active) | IC50 [22]: > 20 µM (inactive) | AC50 [23]: 0.287 µM (active) | AC50 [24]: 22.6 µM (active) | AC50 [25]: 13.3 µM (active) | AC50 [26]: 11.2 µM (active) | AC50 (cells [27]): 9.92 µM (active) | AC50 (cells [28]): 35 µM (active) | AC50 (cells [29]): 12.4 µM (active)

Oc1ccc(/C=N/Nc2nccnc2Cl)c(O)c1
EC50 [30]: 7.09 µM (active) | EC50 (BJ [31]): 10.7 µM (active) | EC50 [32]: 6.33 µM (active) | EC50 [33]: 3.7 µM (active) | EC50 (BJ [34]): 5.07 µM (active) | IC50 (Large T antigen): 16.7 µM (active) | EC50 [35]: 1.05 µM (active) | EC50 [36]: 0.254 µM (active) | EC50 (BJ [37]): 10.9 µM (active) | EC50 [38]: 13.4 µM (active) | IC50 (Nonstructural protein 1): 9.11 µM (active) | EC50 (BJ [39]): 6.12 µM (active) | IC50 [40]: 12.7 µM (active) | AC50 [41]: 3.85 µM (active) | AC50 [42]: 16.5 µM (active)
